Test results taken from US20100190683A1, “SOLIDIFIED DETERGENT COMPOSITIONS AND METHOD FOR PRODUCING THE SAME” (priority 2007, published 2010).

Tests used:
[1] = Solubility to tap water and behavior after dissolution of lyophilized samples; type: physicochemical; conditions: lyophilization 15 hours
Description: On the other hand, such a phenomenon was not seen when ethanol was added (Table 1). Therefore, in the conditions like the ethanol addition groups, the sample was prepared by using t-butyl alcohol in substitution for ethanol, and lyophilized for 15 hours. As a result, solidification (powderization) by lyophilization was possible in both samples. In addition, the solubility to tap water was good, and after dissolution, gelation or the like has not also happened (Table 2). Furthermore, ethanol or t-butyl alcohol was not added, and in the system which only HD was added, the solubility to tap water was good, and after dissolution, gelation or the like had not also happened (Table 2). In the system which as substitution for HD, a nonionic surfactant, polyoxyethylene sorbitan monolaurate (hereinafter referred to as PO) was added, this system was also examined, and then a similar good result was obtained.

[2] = Solubility to tap water of the substance obtained by azeotrope at 70° C.; type: physicochemical; conditions: surfactant HD, tap water of 5 mL
Description: In the undiluted solution of octadecyl dimethyl (3-trimethoxysilyl propyl) ammonium chloride (hereinafter referred to as QAS) which is an antimicrobial detergent, hexadecyl trimethyl ammonium (hereinafter referred to as HD), which was a cationic surfactant, was added, and for the azeotrope, a sample solution with the addition of acetone or ethanol was prepared, azeotrope was performed at 70° C. […] In the resultant gelated substance, tap water of 5 mL was added, but gelation advanced in many samples highly and solidification was occurred within several minutes to 1 hour, and those were not suitable for practical use (Table 1).

[3] = surfactant HD, solvent t-Butyl alcohol
[4] = surfactant HD, solvent: nothing
[5] = surfactant PO, solvent: nothing

CCCCCCCCCCCCCCCCCC[N+](C)(C)CCC[Si](OC)(OC)OC.[Cl-] [QAS, octadecyl dimethyl (3-trimethoxysilyl propyl) ammonium chloride]
No problem: Behavior after dissolution ([1]; surfactant HD, solvent Ethanol) | Solubility to tap water ([1]; surfactant HD, solvent Ethanol) | Behavior after dissolution [1, 3] | Solubility to tap water [1, 3] | Behavior after dissolution [1, 4] | Solubility to tap water [1, 4] | Behavior after dissolution [1, 5] | Solubility to tap water [1, 5]
Gel→Consolidate: Solubility to tap water ([2]; solvent addition Acetone) | Solubility to tap water ([2]; solvent addition: nothing)
